Measured values from US20230322721A1 (OSLO UNIVERSITETSSYKEHUS HF, priority 2020, published 2023).
Where a name gives a salt, the structure may show the parent alone. Read-outs that look alike come from different tables or passages of the source.

How the values were obtained:
HEK293 = assay: Cellular IC50 HEK293; format: cell-based
Description: (§1) XLfit (idbs) was used to determine the IC50-values in inhibition experiments. The following formula was chosen to fit the data points (Langmuir Binding Isotherm): fit=((A+(B*x))+(((C−B)*(1−exp((−1*D)*x)))/D)), res=(y−fit).

[1] = Metabolic stability in mouse liver microsomes (MLM); format: in vitro ADME; details: for microsomal CLint at 1 μM / half-life at 1 μM: pH 7.4, 1 μM compound, 0.5 mg/ml microsomal protein, 37° C.; for half-life at 1 μM: read-out: MLM t1/2 average
Protocol: (§2) Metabolic stability was investigated in mouse liver microsomes (MLM) and in human liver microsomes (HLM): […] Incubations were performed at 37° C. Control incubations with reference substances were included for each experiment. […] After the last time point, the quench plates were mixed thoroughly and centrifuged for 15 minutes at 3700 rpm and 10° C. (Eppendorf 5804R). The supernatant was transferred to new 96 well plates and subjected to LCMS analysis. The disappearance of the parent compound was determined.

[2] = Metabolic stability in human liver microsomes (HLM); format: in vitro ADME; details: for microsomal CLint at 1 μM / half-life at 1 μM: pH 7.4, 1 μM compound, 0.5 mg/ml microsomal protein, 37° C.; for half-life at 1 μM: read-out: HLM t1/2 average
Protocol: as §2

TNKS2 = TNKS2 (Homo sapiens (Human), UniProt Q9H2K2); assay: Biochemical IC50 TNKS2
Description: as §1

[3] = Homo sapiens, HEK293; read-out: Cellular IC50 HEK 293
[4] = Homo sapiens, HEK293; read-out: Cellular IC50 HEK293
[5] = Homo sapiens, HEK293, read-out: Cellular IC50 HEK 293
[6] = Homo sapiens, HEK293, read-out: Cellular IC50 HEK293
[7] = read-out: Biochemical IC50 TNKS2

Sequence of TNKS2 (Q9H2K2 whole entry): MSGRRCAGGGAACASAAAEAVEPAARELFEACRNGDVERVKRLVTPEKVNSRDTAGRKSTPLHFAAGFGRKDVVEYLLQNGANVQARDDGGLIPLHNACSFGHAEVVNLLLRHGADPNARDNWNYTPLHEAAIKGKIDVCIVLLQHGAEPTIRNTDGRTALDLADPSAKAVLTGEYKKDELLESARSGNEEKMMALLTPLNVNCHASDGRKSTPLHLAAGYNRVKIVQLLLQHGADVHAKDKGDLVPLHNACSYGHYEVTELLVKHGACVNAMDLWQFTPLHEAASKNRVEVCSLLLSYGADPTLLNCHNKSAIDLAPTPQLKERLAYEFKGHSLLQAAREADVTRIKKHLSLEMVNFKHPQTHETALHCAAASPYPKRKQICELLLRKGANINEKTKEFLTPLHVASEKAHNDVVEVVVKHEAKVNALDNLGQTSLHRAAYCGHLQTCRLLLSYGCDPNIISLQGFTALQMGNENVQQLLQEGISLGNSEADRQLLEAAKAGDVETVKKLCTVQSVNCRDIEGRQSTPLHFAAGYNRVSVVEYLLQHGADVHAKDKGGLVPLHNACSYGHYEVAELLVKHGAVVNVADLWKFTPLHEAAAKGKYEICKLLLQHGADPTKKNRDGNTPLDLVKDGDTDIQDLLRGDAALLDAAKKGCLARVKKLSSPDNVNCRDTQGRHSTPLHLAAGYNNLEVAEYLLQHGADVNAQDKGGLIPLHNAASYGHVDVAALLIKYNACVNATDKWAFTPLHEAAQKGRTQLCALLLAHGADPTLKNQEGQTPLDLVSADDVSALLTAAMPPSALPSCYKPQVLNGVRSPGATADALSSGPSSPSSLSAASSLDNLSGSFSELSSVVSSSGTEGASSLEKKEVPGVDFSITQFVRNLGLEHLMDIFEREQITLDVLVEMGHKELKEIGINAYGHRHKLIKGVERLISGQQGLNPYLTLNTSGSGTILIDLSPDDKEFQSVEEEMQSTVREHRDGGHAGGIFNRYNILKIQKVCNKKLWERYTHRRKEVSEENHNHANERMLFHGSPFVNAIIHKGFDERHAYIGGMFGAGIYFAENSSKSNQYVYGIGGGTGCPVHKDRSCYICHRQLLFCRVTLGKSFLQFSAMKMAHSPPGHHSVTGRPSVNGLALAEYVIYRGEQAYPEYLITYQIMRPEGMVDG

Row | SMILES | IC50 (HEK293; [3]) [nM] | IC50 (HEK293; [4]) [nM] | IC50 (TNKS2; [7]) [nM] | also measured
1 | CCOc1ccc(-c2nnc([C@H]3C[C@H](NC(=O)c4cccc(O)c4)C3)n2-c2ccccc2F)nc1 [Example 15, N-(trans-3-(5-(5-ethoxypyridin-2-yl)-4-(2-fluorophenyl)-4H-1,2,4-triazol-3-yl)cyclobutyl)-3-hydroxybenzamide] | 130 | 130 |  | 
2 | CCOc1ccc(-c2nnc([C@H]3C[C@H](NC(=O)c4cccc(=O)[nH]4)C3)n2-c2ccccc2F)nc1 [Example 11, N-(trans-3-(5-(5-ethoxypyridin-2-yl)-4-(2-fluorophenyl)-4H-1,2,4-triazol-3-yl)cyclobutyl)-6-oxo-1,6-dihydropyridine-2-carboxamide] | 2800 | 2770 |  | 
3 | CCOc1ccc(-c2nnc([C@H]3C[C@H](NC(=O)c4cccc5c4nc(C)c(C)[n+]5[O-])C3)n2-c2ccccc2F)nc1 [Example 24, 5-((trans-3-(5-(5-ethoxypyridin-2-yl)-4-(2-fluorophenyl)-4H-1,2,4-triazol-3-yl)cyclobutyl)carbamoyl)-2,3-dimethylquinoxaline 1-oxide] |  |  |  | IC50 (HEK293; [5]): 3.7 nM; IC50 (HEK293; [6]): 3.7 nM
4 | CCOc1ccc(-c2nnc([C@H]3C[C@H](NC(=O)c4cc[n+]([O-])c5cc(F)cnc45)C3)n2-c2ccccc2F)nc1 [Example 29, 4-((trans-3-(5-(5-ethoxypyridin-2-yl)-4-(2-fluorophenyl)-4H-1,2,4-triazol-3-yl)cyclobutyl)carbamoyl)-7-fluoro-1,5-naphthyridine 1-oxide] | 2.8 | 2.8 |  | 
5 | CCOc1ccc(-c2nnc([C@H]3C[C@H](NC(=O)c4cccc5ncc(O)nc45)C3)n2-c2ccccc2F)nc1 [Example 1, N-((1R,3r)-3-(5-(5-ethoxypyridin-2-yl)-4-(2-fluorophenyl)-4H-1,2,4-triazol-3-yl)cyclobutyl)-3-hydroxyquinoxaline-5-carboxamide] |  | 220 | 36 | microsomal CLint at 1 μM [1]: 72 µL/min/mg; half-life at 1 μM [1]: 19 min; microsomal CLint at 1 μM [2]: 45 µL/min/mg; half-life at 1 μM [2]: 31 min
6 | CCOc1ccc(-c2nnc([C@H]3C[C@H](NC(=O)c4cccc5nccnc45)C3)n2-c2ccccc2F)nc1 [Example 154 of WO 2019/243822, reference compound] |  |  | 1.8 | clearance in MLM (in words) [1]: high clearance; microsomal CLint at 1 μM [1]: 81 µL/min/mg; half-life at 1 μM [1]: 17 min; clearance in HLM (in words) [2]: moderate clearance; microsomal CLint at 1 μM [2]: 40 µL/min/mg; half-life at 1 μM [2]: 35 min; IC50 (HEK293; [6]): 0.53 nM
7 | CCOc1ccc(-c2nnc([C@H]3C[C@H](NC(=O)c4cccc5nc(O)cnc45)C3)n2-c2ccccc2F)nc1 [Example 2, Dihydrochloride] |  | 1.1 | 1.5 | microsomal CLint at 1 μM [1]: 7 µL/min/mg; half-life at 1 μM [1]: > 90 min; microsomal CLint at 1 μM [2]: 17 µL/min/mg; half-life at 1 μM [2]: 79 min
8 | CCOc1ccc(-c2nnc([C@H]3C[C@H](NC(=O)c4cc[n+]([O-])cc4)C3)n2-c2ccccc2F)nc1 [Example 19, 4-((trans-3-(5-(5-ethoxypyridin-2-yl)-4-(2-fluorophenyl)-4H-1,2,4-triazol-3-yl)cyclobutyl)carbamoyl)pyridine 1-oxide] | 34 | 34 |  | 
9 | CCOc1ccc(-c2nnc([C@H]3C[C@H](NC(=O)c4cccc(C(=O)N(C)C)n4)C3)n2-c2ccccc2F)nc1 [Example 9] | 190 | 187 |  | 
10 | CCOc1ccc(-c2nnc([C@H]3C[C@H](NC(=O)c4cccc5cc(O)ccc45)C3)n2-c2ccccc2F)nc1 [Example 12] | > 10000 | > 10000 |  | 
11 | CCOc1ccc(-c2nnc([C@H]3C[C@H](NC(=O)c4cccc(C(=O)N5CCC5)n4)C3)n2-c2ccccc2F)nc1 [Example 10, 6-(azetidine-1-carbonyl)-N-(trans-3-(5-(5-ethoxypyridin-2-yl)-4-((S)-2-fluorophenyl)-4H-1,2,4-triazol-3-yl)cyclobutyl)picolinamide] |  |  |  | IC50 (HEK293; [5]): 41 nM; IC50 (HEK293; [6]): 41 nM
12 | CCOc1ccc(-c2nnc([C@H]3C[C@H](NC(=O)c4cccc5c4ccc[n+]5[O-])C3)n2-c2ccccc2F)nc1 [Example 25, 5-((trans-3-(5-(5-ethoxypyridin-2-yl)-4-(2-fluorophenyl)-4H-1,2,4-triazol-3-yl)cyclobutyl)carbamoyl)quinoline 1-oxide] |  |  |  | IC50 (HEK293; [5]): 10000 nM; IC50 (HEK293; [6]): 9960 nM; IC50 (TNKS2): 978 nM
13 | CCOc1ccc(-c2nnc([C@H]3C[C@H](NC(=O)c4cc[n+]([O-])c5cc(O)cnc45)C3)n2-c2ccccc2F)nc1 [Example 27, 4-((trans-3-(5-(5-ethoxypyridin-2-yl)-4-(2-fluorophenyl)-4H-1,2,4-triazol-3-yl)cyclobutyl)carbamoyl)-7-hydroxy-1,5-naphthyridine 1-oxide] |  |  |  | IC50 (HEK293; [5]): 22 nM; IC50 (HEK293; [6]): 22 nM; IC50 (TNKS2): 1.7 nM
14 | CCOc1ccc(-c2nnc([C@H]3C[C@H](NC(=O)c4cccc5c(N(C)C)ccnc45)C3)n2-c2ccccc2F)nc1 [Example 22] | 15 | 15 | 2.1 | 
15 | CCOc1ccc(-c2nnc([C@H]3C[C@H](NC(=O)c4cc[n+]([O-])c5cccnc45)C3)n2-c2ccccc2F)nc1 [Example 26, 4-((trans-3-(5-(5-ethoxypyridin-2-yl)-4-(2-fluorophenyl)-4H-1,2,4-triazol-3-yl)cyclobutyl)carbamoyl)-1,5-naphthyridine 1-oxide] | 1.4 | 1.4 | 2.6 | 
16 | CCOc1ccc(-c2nnc([C@H]3C[C@H](NC(=O)c4ccc5cccc(O)c5n4)C3)n2-c2ccccc2F)nc1 [Example 21, N-(trans-3-(5-(5-ethoxypyridin-2-yl)-4-(2-fluorophenyl)-4H-1,2,4-triazol-3-yl)cyclobutyl)-8-hydroxyquinoline-2-carboxamide] | 72 | 72 | 12.5 | 
17 | CCOc1ccc(-c2nnc([C@H]3C[C@H](NC(=O)c4ccc[n+]([O-])c4)C3)n2-c2ccccc2F)nc1 [Example 18, 3-((trans-3-(5-(5-ethoxypyridin-2-yl)-4-(2-fluorophenyl)-4H-1,2,4-triazol-3-yl)cyclobutyl)carbamoyl)pyridine 1-oxide] | > 10000 | > 10000 |  | 
18 | CCOc1ccc(-c2nnc([C@H]3C[C@H](NC(=O)c4cc[n+]([O-])c5cc(OC)cnc45)C3)n2-c2ccccc2F)nc1 [Example 28, 4-((trans-3-(5-(5-ethoxypyridin-2-yl)-4-(2-fluorophenyl)-4H-1,2,4-triazol-3-yl)cyclobutyl)carbamoyl)-7-methoxy-1,5-naphthyridine 1-oxide] |  |  |  | IC50 (HEK293; [5]): 1.2 nM; IC50 (HEK293; [6]): 1.2 nM; IC50 (TNKS2): 3.5 nM
19 | CCOc1ccc(-c2nnc([C@H]3C[C@H](NC(=O)c4cccc5[nH]c(=O)ccc45)C3)n2-c2ccccc2F)nc1 [Example 13, N-(trans-3-(5-(5-ethoxypyridin-2-yl)-4-(2-fluorophenyl)-4H-1,2,4-triazol-3-yl)cyclobutyl)-2-oxo-1,2-dihydroquinoline-5-carboxamide] | > 10000 | > 10000 |  | 
20 | CCOc1ccc(-c2nnc([C@H]3C[C@H](NC(=O)c4cccc(C(N)=O)n4)C3)n2-c2ccccc2F)nc1 [Example 7, N-(trans-3-(5-(5-ethoxypyridin-2-yl)-4-(2-fluorophenyl)-4H-1,2,4-triazol-3-yl)cyclobutyl)pyridine-2,6-dicarboxamide] | 70 | 70 |  | 
21 | CCOc1ccc(-c2nnc([C@H]3C[C@H](NC(=O)c4cccc(N)n4)C3)n2-c2ccccc2F)nc1 [Example 20, 6-amino-N-(trans-3-(5-(5-ethoxypyridin-2-yl)-4-(2-fluorophenyl)-4H-1,2,4-triazol-3-yl)cyclobutyl)picolinamide] | 27 | 27 | 7.2 | 
22 | CCOc1ccc(-c2nnc([C@H]3C[C@H](NC(=O)c4cccc(C(=O)NC)n4)C3)n2-c2ccccc2F)nc1 [Example 8, N2-(trans-3-(5-(5-ethoxypyridin-2-yl)-4-((S)-2-fluorophenyl)-4H-1,2,4-triazol-3-yl)cyclobutyl)-N6-methylpyridine-2,6-dicarboxamide] | 21 | 21 |  | 
23 | CCOc1ccc(-c2nnc([C@H]3C[C@H](NC(=O)c4cccc5c(O)ccnc45)C3)n2-c2ccccc2F)nc1 [Example 14, N-(trans-3-(5-(5-ethoxypyridin-2-yl)-4-(2-fluorophenyl)-4H-1,2,4-triazol-3-yl)cyclobutyl)-4-hydroxyquinoline-8-carboxamide] | 8.5 | 8.5 |  | 
24 | CCOc1ccc(-c2nnc([C@H]3C[C@H](NC(=O)c4cccc5cc(O)cnc45)C3)n2-c2ccccc2F)nc1 [Example 23, N-(trans-3-(5-(5-ethoxypyridin-2-yl)-4-(2-fluorophenyl)-4H-1,2,4-triazol-3-yl)cyclobutyl)-3-hydroxyquinoline-8-carboxamide] | 3.6 | 3.6 | 1.3 | 
25 | CCOc1ccc(-c2nnc([C@H]3C[C@H](NC(=O)c4cccc(S(N)(=O)=O)c4)C3)n2-c2ccccc2F)nc1 [Example 16, N-(trans-3-(5-(5-ethoxypyridin-2-yl)-4-(2-fluorophenyl)-4H-1,2,4-triazol-3-yl)cyclobutyl)-3-sulfamoylbenzamide] | 2300 | 2260 |  | 
